Calls of active or inactive are those of the source. No rule for the calls is given here.

For the series, the system named is CCRIS mutagenicity, Ames/micronucleus/aberration tests. The series is described as follows: CCRIS mutagenicity studies.
Where [1] appears, read: Test System: AMES SALMONELLA TYPHIMURIUM, Strain/Indicator: TA97A, Metabolic Activation: NONE, Method: STANDARD PLATE.
[2] abbreviates: Test System: AMES SALMONELLA TYPHIMURIUM, Strain/Indicator: TA98, Metabolic Activation: NONE, Method: STANDARD PLATE.
The mark [3] stands for this setting: Test System: AMES SALMONELLA TYPHIMURIUM, Strain/Indicator: TA100, Metabolic Activation: NONE, Method: STANDARD PLATE.
Setting [4] is: Test System: AMES SALMONELLA TYPHIMURIUM, Strain/Indicator: TA100, Metabolic Activation: RAT, LIVER, S-9, AROCLOR 1254, Method: STANDARD PLATE.

Consider `CC1=C(C(=O)Nc2ccccc2)SCCO1`, for which the mutagenic call is, setting by setting: under setting [1], “inactive; negative”; (Test System: AMES SALMONELLA TYPHIMURIUM, Strain/Indicator: TA97A, Metabolic Activation: PLANT, HOMOGENATE, S-14, Method: STANDARD PLATE) “inactive; negative”; (Test System: AMES SALMONELLA TYPHIMURIUM, Strain/Indicator: TA97A, Metabolic Activation: S-9, Method: STANDARD PLATE) “inactive; negative”; under setting [2], “inactive; negative”; (Test System: AMES SALMONELLA TYPHIMURIUM, Strain/Indicator: TA98, Metabolic Activation: PLANT, HOMOGENATE, S-14, Method: STANDARD PLATE) “inactive; negative”; (Test System: AMES SALMONELLA TYPHIMURIUM, Strain/Indicator: TA98, Metabolic Activation: S-9, Method: STANDARD PLATE) “inactive; negative”. Besides, the mutagenic call reads like this: under setting [3], “inactive; negative”; (Test System: AMES SALMONELLA TYPHIMURIUM, Strain/Indicator: TA100, Metabolic Activation: PLANT, HOMOGENATE, S-14, Method: STANDARD PLATE) “inactive; negative”; (Test System: AMES SALMONELLA TYPHIMURIUM, Strain/Indicator: TA100, Metabolic Activation: S-9, Method: STANDARD PLATE) “inactive; negative”; (Test System: AMES SALMONELLA TYPHIMURIUM, Strain/Indicator: TA1535, Metabolic Activation: NONE, Method: STANDARD PLATE) “inactive; negative”; (Test System: AMES SALMONELLA TYPHIMURIUM, Strain/Indicator: TA1535, Metabolic Activation: PLANT, HOMOGENATE, S-14, Method: STANDARD PLATE) “inactive; negative”; (Test System: AMES SALMONELLA TYPHIMURIUM, Strain/Indicator: TA1535, Metabolic Activation: S-9, Method: STANDARD PLATE) “inactive; negative”.

As to `CC(C)CCC[C@@H](C)[C@H]1CC[C@H]2[C@@H]3CC=C4CCCC[C@]4(C)[C@H]3CC[C@]12C`, the mutagenic call is, setting by setting: under setting [1], “inactive; negative”; (Test System: AMES SALMONELLA TYPHIMURIUM, Strain/Indicator: TA97A, Metabolic Activation: RAT, LIVER, S-9, AROCLOR 1254, Method: STANDARD PLATE) “inactive; negative”; under setting [3], “inactive; negative”; under setting [4], “inactive; negative”; (Test System: AMES SALMONELLA TYPHIMURIUM, Strain/Indicator: TA102, Metabolic Activation: NONE, Method: STANDARD PLATE) “inactive; negative”; (Test System: AMES SALMONELLA TYPHIMURIUM, Strain/Indicator: TA102, Metabolic Activation: RAT, LIVER, S-9, AROCLOR 1254, Method: STANDARD PLATE) “inactive; negative”. Moreover, the mutagenic call was “inactive; negative” (Test System: AMES SALMONELLA TYPHIMURIUM, Strain/Indicator: TA104, Metabolic Activation: NONE, Method: STANDARD PLATE) and “inactive; negative” (Test System: AMES SALMONELLA TYPHIMURIUM, Strain/Indicator: TA104, Metabolic Activation: RAT, LIVER, S-9, AROCLOR 1254, Method: STANDARD PLATE).

In the case of `Cc1ccc(Nc2ccc([N+](=O)[O-])cc2)cc1`, the mutagenic call by setting is: (Test System: AMES SALMONELLA TYPHIMURIUM, Strain/Indicator: TA98(NR), Metabolic Activation: NONE, Method: PREINCUBATION) “inactive; negative”; (Test System: AMES SALMONELLA TYPHIMURIUM, Strain/Indicator: TA98, Metabolic Activation: NONE, Method: PREINCUBATION) “active; positive”; (Test System: AMES SALMONELLA TYPHIMURIUM, Strain/Indicator: TA98, Metabolic Activation: RAT, LIVER, S-9, AROCLOR 1254, Method: PREINCUBATION) “active; positive”.

For `CNN(C)c1ccn([C@@H]2O[C@H](CO)[C@@H](O)[C@H]2O)c(=O)n1`, the mutagenic call (Test System: CHINESE HAMSTER V-79, Strain/Indicator: V-79/6-THIOGUANINE, Metabolic Activation: NONE, Method: REPLATING) was “inactive; negative”.

For the compound `CC(=O)N(O)c1ccc(C)cc1`, the mutagenic call by setting is: under setting [2], “inactive; negative”; (Test System: AMES SALMONELLA TYPHIMURIUM, Strain/Indicator: TA98, Metabolic Activation: RAT, LIVER, S-9, AROCLOR 1254, Method: STANDARD PLATE) “inactive; negative”; under setting [3], “inactive; negative”; under setting [4], “inactive; negative”.

As for `Nc1cc2[nH]c3ccccc3c2cc1[N+](=O)[O-]`, the mutagenic call runs as follows: under setting [2], “inactive; negative”; (Test System: AMES SALMONELLA TYPHIMURIUM, Strain/Indicator: TA98, Metabolic Activation: RAT, LIVER, S-9, PHENOBARBITAL, Method: STANDARD PLATE) “active; positive”; under setting [3], “inactive; negative”; (Test System: AMES SALMONELLA TYPHIMURIUM, Strain/Indicator: TA100, Metabolic Activation: RAT, LIVER, S-9, PHENOBARBITAL, Method: STANDARD PLATE) “active; positive”; (Test System: AMES SALMONELLA TYPHIMURIUM, Strain/Indicator: TA1537, Metabolic Activation: NONE, Method: STANDARD PLATE) “inactive; negative”; (Test System: AMES SALMONELLA TYPHIMURIUM, Strain/Indicator: TA1537, Metabolic Activation: RAT, LIVER, S-9, PHENOBARBITAL, Method: STANDARD PLATE) “active; positive”. In addition, the mutagenic call (Test System: AMES SALMONELLA TYPHIMURIUM, Strain/Indicator: TA1538, Metabolic Activation: NONE, Method: STANDARD PLATE) is “inactive; negative”; the mutagenic call (Test System: AMES SALMONELLA TYPHIMURIUM, Strain/Indicator: TA1538, Metabolic Activation: RAT, LIVER, S-9, PHENOBARBITAL, Method: STANDARD PLATE) was “active; positive”; the mutagenic call (Test System: AMES SALMONELLA TYPHIMURIUM, Strain/Indicator: TA1977, Metabolic Activation: NONE, Method: STANDARD PLATE) was “inactive; negative”; the mutagenic call (Test System: AMES SALMONELLA TYPHIMURIUM, Strain/Indicator: TA1977, Metabolic Activation: RAT, LIVER, S-9, PHENOBARBITAL, Method: STANDARD PLATE) was “inactive; negative”.

The values are drawn from PubChem BioAssay AID1259407 (Chemical Carcinogenesis Research Information System (CCRIS), 2018).
